Values of other authors in patent US11818994B2, “Brachiaria endophytes and related methods” (Agriculture Victoria Services PTY LTD, priority 2015, dated 2023).

Test system: Nitrosomonas spp
Conditions: Subbarao et al. 2009

For brachialactone, the “biocidal activity against Nitrosomonas spp” value is given as “biocidal activity”.
